Where no end group is shown, it is not given here.

The subject of assay [1] is penicilin-intermediate pneumococci. Description: broth microdilution MIC, penicilin-intermediate pneumococci. In kind it is cell-based, Streptococcus pneumoniae. To be noted: 20 isolates; for ER (effective range of MIC): 5×10^5 cfu/ml. An excerpt: (§1) The antimicrobial peptides are thereafter tested using broth microdilution assay 5×10^5 cfu/ml against a total of 60 pneumococcal isolates (20 isolates for each penicillin-susceptible, penicilin-intermediate, and penicilin-resistant pneumococci) to determine their minimum inhibitory concentration (MIC).
(§2) The minimum inhibitory concentration of the antimicrobial peptide for Pro-His-Trp-Trp-Lys-Trp-Ala-Trp-Trp-His-His-Arg-Arg (SEQ ID NO:1), Lys-His-Trp-Trp-Lys-His-Asp-Trp-Trp-Arg-Trp-Arg-Arg (SEQ ID NO:2), and Ile-Leu-Trp-Trp-Leu-Leu-Ala-Trp-Trp-Arg-Trp-Pro-His (SEQ ID NO:3) are presented in Table 1. An effective range (ER) is defined as the range of the minimum inhibitory concentration to which the antimicrobial peptide produces detectable activity against the bacterial pathogens, whereas an effective percentage (EP) is the percentage of isolates inhibited with the effective range. From the Table 1, the SEQ ID NO:1 inhibited 95% penicillin-resistant pneumococci at the effective range of 62.5 to 250 μg/ml, 85% penicilin-intermediate pneumococci was inhibited at the effective range of 62.5 to 250 μg/ml, and 80% penicilin-susceptible pneumococci was inhibited at the effective range of 125 to 250 μg/ml. The SEQ ID NO:2 inhibited 100% of penicillin-resistant pneumococci at the effective range of 62.5 to 250 μg/ml, 95% penicilin-intermediate pneumococci was inhibited at the effective range of 125 to 250 μg/ml, and 95% penicilin-susceptible pneumococci was inhibited at the effective range of 62.5 to 250 μg/ml. […] However, the antipneumococcal activity is not detected for SEQ ID NO:3 up to the maximum concentration (250 μg/ml) tested.
In general terms: In broth dilution the organism is exposed to a series of concentrations in liquid medium.

Assay [2] deals with penicillin-resistant pneumococci. Description: broth microdilution MIC, penicillin-resistant pneumococci. The note with it: 20 isolates; for ER (effective range of MIC): 5×10^5 cfu/ml. It counts as cell-based, Streptococcus pneumoniae.
Source text: as §1, §2

In assay [3] the test system is penicilin-susceptible pneumococci. In words: broth microdilution MIC, penicilin-susceptible pneumococci. In kind it is cell-based, Streptococcus pneumoniae. The note with it: 20 isolates; for ER (effective range of MIC): 5×10^5 cfu/ml.
Source text: as §1, §2

In assay [4] the test system is methicillin-resistant Staphylococcus aureus. In words: antimicrobial activity against bacterial pathogens. It counts as cell-based. To be noted: Gram-positive. As for the experimental part:
as §1
(§3) In a preferred embodiment, the SEQ ID NO:1 is weakly effective against Acinetobacter baumannii at 125 μg/ml only. The SEQ ID NO:2 has broader spectrum which effective against Acinetobacter baumannii, Staphylococcus aureus, methicillin-resistant Staphylococcus aureus, Escherichia coli, Enterococcus cloacae at 125 μg/ml respectively.

Assay [5] relates to Acinetobacter baumannii. In words: antimicrobial activity against bacterial pathogens. It counts as cell-based. To be noted: Gram-negative. As for the experimental part:
as §1, §3

Assay [6] relates to Escherichia coli. Description: antimicrobial activity against bacterial pathogens. To be noted: Gram-negative. It counts as cell-based. As to the method:
as §1, §3

In assay [7] the test system is Staphylococcus aureus. Description: antimicrobial activity against bacterial pathogens. In kind it is cell-based. To be noted: Gram-positive. As for the experimental part: as §1, §3
The subject of assay [8] is Streptococcus pneumoniae. In words: broth microdilution MIC, all 60 pneumococcal isolates. It counts as cell-based. The note with it: for Overall EP: all 60 pneumococcal isolates irrespective of penicillin susceptibility; for overall effective percentage relative to the indolicidin class of antimicrobial peptide: higher than indolicidin, irrespective of penicillin susceptibility.
Source text: as §1, §2

Assay [9] relates to K. pneumoniae. Description: antimicrobial activity against bacterial pathogens. It counts as cell-based. To be noted: Gram-negative.
The test system of assay [10] is Pseudomonas aeruginosa. Description: antimicrobial activity against bacterial pathogens. In kind it is cell-based. To be noted: Gram-negative.
For assay [11], the system named is Citrobacter spp. Description: antimicrobial activity against bacterial pathogens. It counts as cell-based. The note with it: Gram-negative.
The nature of assay [12]: antimicrobial activity against bacterial pathogens. The note with it: Gram-negative. In kind it is cell-based, Enterococcus cloacae. As to the method:
as §1, §3

Regarding ILWWKWAWWRWRR [reference compound], the “EP (effective percentage, isolates inhibited within ER)” value worked out at 30% in assay [1], 45% in assay [2] and 65% in [3]. Besides, the “ER (effective range of MIC)” value lay in the range of 125 to 250 µg/mL in [1], 62.5 to 250 µg/mL in [2] and 31.25 to 250 µg/mL in assay [3]. For the same sequence, the “antimicrobial activity (inhibitory concentration) against methicillin-resistant S. aureus” value in [4] came out at 31.25 µg/mL. The “antimicrobial activity (inhibitory concentration) against A. baumannii” value in assay [5] stood at 125 µg/mL. Besides, the “antimicrobial activity (inhibitory concentration) against E. coli” value in assay [6] was found to be 250 µg/mL. Moreover, in [7], the “antimicrobial activity (inhibitory concentration) against S. aureus” value worked out at 62.5 µg/mL. Moreover, in assay [8], the “Overall EP” value came out at 46.7%. Also, the “antimicrobial activity (inhibitory concentration) against K. pneumoniae” value in assay [9] is over 250 µg/mL. In addition, the “antimicrobial activity (inhibitory concentration) against P. aeruginosa” value in assay [10] was over 250 µg/mL. Besides, the “antimicrobial activity (inhibitory concentration) against Citrobacter spp.” value in assay [11] stood at 62.5 µg/mL. Besides, the “antimicrobial activity (inhibitory concentration) against E. cloacae” value in [12] amounted to 125 µg/mL.

For ILWWLLAWWRWPH [SEQ ID NO:3], the “EP (effective percentage, isolates inhibited within ER)” value in [1], in assay [2] and in [3] was 0% in each case. For the same sequence, the “ER (effective range of MIC)” value in [1], in [2] and in [3] was over 250 µg/mL in each case. Further, the “antimicrobial activity (inhibitory concentration) against methicillin-resistant S. aureus” value in [4] was over 250 µg/mL. For the same sequence, the “antimicrobial activity (inhibitory concentration) against A. baumannii” value in assay [5] is over 250 µg/mL. In assay [6], the “antimicrobial activity (inhibitory concentration) against E. coli” value is over 250 µg/mL. In addition, the “antimicrobial activity (inhibitory concentration) against S. aureus” value in [7] was 7.81 µg/mL. Besides, the “Overall EP” value in assay [8] is listed as 0%. In addition, the antipneumococcal activity entry in assay [8] (up to the maximum concentration (250 μg/ml) tested) was “not detected”. In addition, the “antimicrobial activity (inhibitory concentration) against K. pneumoniae” value in [9] was over 250 µg/mL. In addition, the “antimicrobial activity (inhibitory concentration) against P. aeruginosa” value in assay [10] is over 250 µg/mL. In assay [11], the “antimicrobial activity (inhibitory concentration) against Citrobacter spp.” value was over 250 µg/mL. The “antimicrobial activity (inhibitory concentration) against E. cloacae” value in assay [12] was over 250 µg/mL.

On to KHWWKHDWWRWRR [SEQ ID NO:2], for which, in assay [1], the “EP (effective percentage, isolates inhibited within ER)” value came out at 95% and the “ER (effective range of MIC)” value is 125 to 250 µg/mL. For the same sequence, in assay [2], the “EP (effective percentage, isolates inhibited within ER)” value is 100% and the “ER (effective range of MIC)” value lay within 62.5 to 250 µg/mL. In addition, in [3], the “EP (effective percentage, isolates inhibited within ER)” value is recorded as 95% and the “ER (effective range of MIC)” value was 62.5 to 250 µg/mL. In addition, in assay [4], the “antimicrobial activity (inhibitory concentration) against methicillin-resistant S. aureus” value is 125 µg/mL. Also, the “antimicrobial activity (inhibitory concentration) against A. baumannii” value in assay [5] is 125 µg/mL. Also, the “antimicrobial activity (inhibitory concentration) against E. coli” value in assay [6] turned out to be 125 µg/mL. Also, the “antimicrobial activity (inhibitory concentration) against S. aureus” value in assay [7] was determined as 125 µg/mL. For the same sequence, in assay [8], the “Overall EP” value is on record as 96.7% and the “overall effective percentage relative to the indolicidin class of antimicrobial peptide” value is recorded as “approximately two fold”. In assay [9], the “antimicrobial activity (inhibitory concentration) against K. pneumoniae” value is over 250 µg/mL. In assay [10], the “antimicrobial activity (inhibitory concentration) against P. aeruginosa” value was 62.5 µg/mL. Besides, the “antimicrobial activity (inhibitory concentration) against Citrobacter spp.” value in assay [11] was 31.25 µg/mL. Besides, the “antimicrobial activity (inhibitory concentration) against E. cloacae” value in [12] was 125 µg/mL.

For PHWWKWAWWHHRR [SEQ ID NO:1], in [1], the “EP (effective percentage, isolates inhibited within ER)” value worked out at 85% and the “ER (effective range of MIC)” value lay within 62.5 to 250 µg/mL. In assay [2], the “EP (effective percentage, isolates inhibited within ER)” value came out at 95% and the “ER (effective range of MIC)” value was in the range of 62.5 to 250 µg/mL. Besides, in assay [3], the “EP (effective percentage, isolates inhibited within ER)” value was 80% and the “ER (effective range of MIC)” value fell in the range of 125 to 250 µg/mL. In addition, in [4], the “antimicrobial activity (inhibitory concentration) against methicillin-resistant S. aureus” value is over 250 µg/mL. The “antimicrobial activity (inhibitory concentration) against A. baumannii” value in assay [5] came to 125 µg/mL. In addition, in assay [6], the “antimicrobial activity (inhibitory concentration) against E. coli” value was over 250 µg/mL. Also, the “antimicrobial activity (inhibitory concentration) against S. aureus” value in [7] is over 250 µg/mL. In addition, in assay [8], the “Overall EP” value was 86.7% and the “overall effective percentage relative to the indolicidin class of antimicrobial peptide” value is listed as “approximately two fold”. Further, in assay [9], the “antimicrobial activity (inhibitory concentration) against K. pneumoniae” value is over 250 µg/mL. In assay [10], the “antimicrobial activity (inhibitory concentration) against P. aeruginosa” value was over 250 µg/mL. The “antimicrobial activity (inhibitory concentration) against Citrobacter spp.” value in assay [11] was over 250 µg/mL. In addition, in assay [12], the “antimicrobial activity (inhibitory concentration) against E. cloacae” value is over 250 µg/mL.

These data come from patent publication US8741851B2, “Peptides having antimicrobial activity” (Universiti Malaya, priority 2012, dated 2014).
